Measured values: US5493024A, “3,4,N-trisubstituted-4,5-dihydro-1H-pyrazole-1-carboxamides and their use as insectioides” (DowElanco, priority 1993, dated 1996)
In brackets after ≈: the same amount, converted by molar mass.

Assays:
[1] = system: beet armyworm; assay: Effect on beet armyworm, contact and ingestion test (treated cotton leaf discs); assay type: in vivo, S. exigua (beet armyworm); details: Spodoptera exigua, foliar, 120 h; second-instar larvae, sprayed cotton leaf discs, 5 days at 25° C; read-out: BEET ARMYWORM Contact and Ingestion Test LC50, ppm
Experimental: (§1) Effect on Tobacco Budworm and Beet Armyworm by Leaf Ingestion and/or Contact.
(§2) Stock solutions of the compounds to be tested having a known concentration were prepared by dissolving weighed amounts in a 90:10 mixture of high-purity acetone and ethanol and these solutions were diluted with distilled water (containing 0.05 percent by weight Tween 20™ surfactant) to obtain the spray solutions of known concentration employed. Greenhouse-grown cotton leaves of uniform age were cut into 2.5 cm diameter discs and one disc was placed in the bottom of each of a number of 30 mL plastic cups. The cups were then sprayed by means of a track sprayer applying 0.055 mL of spray solution per cup. The leaf discs were allowed to dry and then a single second-instar H. virescens (tobacco budworm) or S. exigua (beet armyworm) larva was added to each cup and each cup was capped with a perforated plastic lid. Ten cups were prepared for each insect species and each application rate and five applications rates were usually run. Treated cups were stored for 5 days at 25° C. and were then graded for mortality. Untreated controls and positive controls (cypermethrin) were run simultaneously. The amount of test chemical required to kill half of the larvae (LD50) was calculated.

[2] = system: beet armyworm; assay: Effect on beet armyworm, contact test (treated Teflon discs); assay type: in vivo, S. exigua (beet armyworm); details: Spodoptera exigua, 144 h; second-instar larvae, sprayed Teflon discs 24 hours, then 5 more days on untreated leaf, 25° C; read-out: BEET ARMYWORM Contact Test LC50, ppm
Experimental: (§3) Effect on Tobacco Budworm and Beet Armyworm by Contact.
(§4) Stock solutions of the compounds to be tested having a known concentration were prepared by dissolving weighed amounts in a 90:10 mixture of high-purity acetone and ethanol and these solutions were diluted with distilled water (containing 0.05 percent by weight Tween 20™ surfactant) to obtain the spray solutions of known concentration employed. Teflon™ discs 5 cm in diameter were placed in plastic petri dishes of slightly larger diameter and these dishes were sprayed by means of a track sprayer applying 0.104 mL of spray solution per cup. The Teflon™ discs were allowed to dry, a single second-instar H. virescens (tobacco budworm) or S. exigua (beet armyworm) larva was placed on each Teflon™ disc, and each disc was capped with a plastic lid. Ten Teflon™ discs were prepared for each application rate and five application rates were usually run. Treated discs were stored for 24 hours at 25° C. and then the Teflon™ disc was removed and replaced with an untreated cotton leaf disc. After 5 more days of storage at 25 ° C. the dishes were graded for mortality. Untreated controls and positive controls (cypermethrin) were run simultaneously. The amount of test chemical required to kill half of the larvae (LD50) was calculated.

[3] = system: tobacco budworm; assay: Effect on tobacco budworm, contact and ingestion test (treated cotton leaf discs); assay type: in vivo, H. virescens (tobacco budworm); details: Heliothis virescens, foliar, 120 h; second-instar larvae, sprayed cotton leaf discs, 5 days at 25° C; read-out: TOBACCO BUDWORM Contact and Ingestion Test LC50, ppm
Experimental: as §1, §2

[4] = system: tobacco budworm; assay: Effect on tobacco budworm, contact test (treated Teflon discs); assay type: in vivo, H. virescens (tobacco budworm); details: Heliothis virescens, 144 h; second-instar larvae, sprayed Teflon discs 24 hours, then 5 more days on untreated leaf, 25° C; read-out: TOBACCO BUDWORM Contact Test LC50, ppm
Experimental: as §3, §4

[5] = system: Blattella germanica nymphs; assay: Effect on cockroaches, contact test (treated vials); assay type: in vivo; details: 168 h, 50 ppm solution, after 7 days, 27° C, read-out: percent control, contact test
Experimental: (§5) Two hundred ppm stock solutions of the compounds to be tested were prepared by dissolving 2.4 milligrams (mg) of each test compound in 12 mL of acetone; four lower concentration solutions were prepared by serial dilution using 3 mL of solution. A 0.5 mL portion of each test solution was pipetted onto 0.2 g of yellow corn meal placed in a small test tube cap (Fisher 02-706-33) and the mixture was placed in a fume hood overnight to allow the solvent to evaporate. […] Each cap was then placed in a 9 cm (centimeter) diameter Petri plate along with a 2 dram vial containing a cotton wick and water. A 0.5 mL portion of each test solution was also pipetted into a 20 mL borosilicate glass scintillation vial. The vials were placed on a roller mixer and the acetone was allowed to evaporate while the vials rolled. […] Five late third or early fourth instar Blattella germanica nymphs weighing 0.01-0.04 g were placed in each vial and each Petri plate and covers were applied loosely to allow entry of air. Each Petri plate and vial was held at 27° C., the Petri plates for 21 days and the vials for 7 days. The percent of mortality was read periodically and at the end of the test.

[6] = system: Blattella germanica nymphs; assay: Effect on cockroaches, ingestion test (treated corn meal); assay type: in vivo; details: 504 h, after 21 days, 27° C, read-out: percent control, ingestion test; for mortality at 12.5 ppm: 12.5 ppm solution; for mortality at 50 ppm: 50 ppm solution; for mortality at 200 ppm: 200 ppm solution
Experimental: as §5

Structure (SMILES)	LC50 [1] [µg/mL]	LC50 [2] [µg/mL]	LC50 [3] [µg/mL]	LC50 [4] [µg/mL]	mortality at 50 ppm [5] [%]	mortality at 12.5 ppm [6] [%]	mortality at 50 ppm [6] [%]	mortality at 200 ppm [6] [%]
O=C(Nc1ccc(C(F)(F)F)cc1)N1CC(c2ccc(C(F)(F)F)cn2)C(c2ccc(F)cc2)=N1 (stereo not shown) [G, 4,5-Dihydro-3-(4-fluorophenyl)-N-(4-trifluoromethylphenyl)-4-(5-trifluoromethyl-2-pyridinyl)-1H-pyrazole-1-carboxamide]	1 (≈ 2.01 µM)	5 (≈ 10.1 µM)	1.1 (≈ 2.22 µM)	8.7 (≈ 17.5 µM)	100	~100	~100	100
O=C(Nc1ccc(OC(F)(F)F)cc1)N1CC(c2ncc(Cl)cn2)C(c2ccc(F)cc2)=N1 (stereo not shown) [T, 4-(5-Chloro-2-pyrimidinyl)-4,5-dihydro-3-(4-fluorophenyl)-N-(4-trifluoromethoxyphenyl)-1H-pyrazole-1-carboxamide]	1.4 (≈ 2.92 µM)	2.2 (≈ 4.59 µM)	1.3 (≈ 2.71 µM)	7.5 (≈ 15.6 µM)	100	~100	~100	100
